Test results reported in US10085965B2, “Cannabinoid alcoholic drink” (priority 2016, dated 2018).

Key:
[1] = Dissolution of CBD in ethanol and consumable alcohol (precipitation / clarity); format: physicochemical
Method: The Combining Cannabinoid Solution with Consumable Alcohol(s) step 156 involves adding the Solution from 154 to a plurality of consumable alcohols measured in 155 in order to create a CAD. In one example, 50 mg of isolated cannabinoid is measured 151. Approximately 5 mL of ethanol is measured 152. The cannabinoid is combined with the ethanol 153. A cannabinoid solution is created by ensuring the cannabinoid is fully dissolved in the ethanol 154. The resulting solution is then combined with one or more consumable alcohols 156. In this example, approximately 745 mL of vodka, to create a standard 750 mL bottle of cannabinoid infused vodka. In other embodiments, other volumes of CADs can be produced. In yet another embodiment, the volume fraction of cannabinoid/ethanol solution in total volume of CADs is equal to or less than 1%.
One particular cannabinoid that can be used is CBD. […] Thus, the CBD and ethanol combine to remain as a fully dissolved, clear solution. […]
The Combining CBD/Ethanol Solution with consumable Alcohol(s) step 256 involves adding the Solution from 254 to the plurality of consumable alcohols measured in 255 in order to create a CAD. In one example, 50 mg of isolated CBD is measured 251. Approximately 5 mL of ethanol is measured 252. […]

[2] = Effects reported by people when the CBD alcoholic drink is consumed; format: in vivo; conditions: CBD consumed together with alcohol in the drink; reports of consumers
Excerpt: When consumed, the positive effects of the CBD help to offset the deleterious effects of the alcohol.

[3] = test system: binge alcohol-induced neurodegeneration; conditions: transdermal delivery, rodent model; Liputa et al. 2013; cited from earlier work

SMILES: C=C(C)[C@@H]1CCC(C)=C[C@H]1c1c(O)cc(CCCCC)cc1O [CBD, cannabidiol]
- dissolution of CBD in ethanol ([1]; 7.8 mg CBD in 1 mL ethanol): no problem with dissolution
- precipitation of CBD from the solution ([1]; amounts/ratios described: 50 mg in approx. 5 mL ethanol, combined with approx. 745 mL vodka, room temperature): will not precipitate out
- effects reported when consumed [2]: euphoria, a sense of being upbeat and feeling little to no effect of the alcohol
- effect on binge alcohol-induced neurodegeneration [3]: attenuate binge alcohol-induced neurodegeneration
